Data set [1] relates to fungi or bacteria. Briefly: Antifungal and antibacterial activity assays, overall statements. It counts as cell-based. How it is done:
(§1) Two fold serial dilutions of each peptide (ranging from 100 μM down to 1.5625 μM) in 20 μl of 10 mM Na phosphate buffer, pH 7.4, were incubated with an equal volume of bacterial or fungal strain (10^5 cells/ml) for 1.5 hours at 30° C. for S. cerevisiae and 37° C. for the rest of strains tested. At the end of incubation, the samples were diluted 20 fold and aliquots (˜120 cells) of each sample were plated on appropriate plates depending on the strain tested, as indicated above. Plates were incubated for 1 to 7 days aerobically or anaerobically, depending on the strain tested. Colonies were then counted, and the loss of cell viability was plotted as a function of protein concentration. Fungicidal activities against C. albicans and C. neoformans were also tested at 4° C.
(§2) A time course study of peptide-induced killing was statistically analyzed by student t-test.

Data set [2] concerns C. neoformans. Briefly: Antifungal (cidal) activity assay, loss of cell viability. It counts as cell-based, Cryptococcus neoformans. Particulars: for ED50 (95% confidence limit) C. neoformans: Example 2, 1.5 hours, 37°, 10 mM Na phosphate buffer pH 7.4; for Loss of Cell viability (%): 6.25 μM.
From the text: (§3) Azole-sensitive (# 2-76) and azole-resistant (# 12-99) clinical isolates of C. albicans were a gift from Dr. Theodore C. White (University of Washington and Seattle Biomedical Research Institute, Seattle, Wash.). An azole-sensitive Candida glabrata (C. glabrata) was purchased from ATCC (ATCC 90030) and its azole-resistant counterpart, clinical isolate 65C, was obtained from Dr. John E. Bennett (National Institute of Allergy and Infectious Diseases, Bethesda, Md.). A clinical isolate of Candida krusei (C. krusei) was obtained from the Erie County Medical Center, Buffalo, N.Y. Amphotericin B-sensitive (CN2) and -resistant (CN2843) C. neoformans strains were obtained from AIDS patients with cryptococcal meningitis and were generously provided by Dr. John H. Rex (University of Texas Medical School, Houston, Tex.). Additionally, Saccharomyces cerevisiae (S. serevisiae) strain S288C was provided by Dr. D. Kosman, Department of Biochemistry, University at Buffalo, the State University of New York. All fungi were streaked and grown on SAB plates at 37° C., except S. cerevisiae, which was grown at 30° C. until large colonies were formed. One colony was then picked and resuspended in Na phosphate buffer (pH 7.4) and the concentration was adjusted to 1×10^5 cell/ml for the antifungal assay described below.
as §1
(§4) To test the effect of inhibitors of oxidative phosphorylation in the mitochondrial system on peptide-induced killing, C. albicans and C. neoformans (CN2) were preincubated with either 20 mM sodium azide or 300 μM CCCP for 2 hours at 37° C. The cidal assays were then carried out as described above. In separate control experiments, both inhibitors were evaluated for their toxicity toward C. albicans and C. neoformans (CN2) in the absence of peptides. At these concentrations, neither compound had any cidal effect. In addition, the fungicidal activities of MUC7 20-mer and Hsn-5 (25 μM) in 10 mM Na phosphate buffer (pH 7.4) in the presence of varying concentrations (1-50 mM) of Ca^++ (as CaCl2) or Mg^++ (as MgCl2) were examined.
as §2
(§5) Two fold serial dilutions of each peptide (ranging from 50 or 25 μM down to 1.5625 μM) in 20 μl of 10 mM Na phosphate buffer, pH 7.4, were incubated with an equal volume of fungal strain (10^5 cells/ml, also in Na phosphate buffer) for 1.5 hours at 37°. At the end of incubation, the samples were diluted 20 fold with the same buffer and aliquots (˜150 cells) of each sample were plated on SAB plates. Plates were incubated for 1 to 2 days for C. albicans and C. neoformans, respectively. Colonies were then counted, and the loss of cell viability was plotted as a function of protein concentration. The statistical analysis was as described in Example 1.

Data set [3] concerns C. albicans. The description is as above. It is filed as cell-based, Candida albicans. Particulars: for ED50 (95% confidence limit) C. albicans: Example 2, 1.5 hours, 37°, 10 mM Na phosphate buffer pH 7.4; for Loss of Cell viability (%): 6.25 μM.
From the text: as §3, §1, §4, §2, §5

Data set [4] concerns C. albicans. In words: Fluorescence light and confocal microscopy, internalization of FITC-labeled peptide. It is filed as cell-based, Candida albicans. Particulars: 50 μM, 45-90 minutes, 37° C. How it is done: (§6) The internalization of MUC7 20-mer into fungi was visualized in C. albicans and C. neoformans. Untreated cells (10^7) or cells preincubated with 20 mM sodium azide, 300 μM CCCP, 50 mM Ca^++ or 50 mM Mg^++ were then treated with 50 μM FITC-MUC7 20-mer for 45-90 minutes in 100 μl of Na phosphate buffer (10 mM, pH 7.4) at 37° C. Untreated cells were also incubated with 50 μM FITC-MUC7 20-mer at 4° C. The cells were then extensively washed with phosphate buffer, concentrated and resuspended in the same buffer. The cell suspension was then quickly mounted on slides with sealed cover-slips. Fluorescence light micrographs were made on a Nikon Optiphot microscope, with a fluorescent light source.
(§7) The intracellular localization of FITC-MUC7-20mer was investigated in a double-labeling experiment using MitoTracker Red mitochondrial probe. C. albicans and C. neoformans were incubated with 500 nM MitoTracker Red in 10 mM Na phosphate buffer, pH 7.4 for 15 minutes at room temperature, washed three times with the same buffer, and subsequently incubated with 50 μM FITC-MUC7 20-mer. After 20 min. incubation at 37° C., the suspension was washed with phosphate buffer extensively. The cell suspension was then quickly mounted on slides with sealed cover-slips. Confocal fluorescence microscopy was performed with a BioRad MRC-1024 confocal microscope system with Krypton-argon laser which outputs 488, 568 and 647 nm excitation line and Nikon upright epifluorescence microscope (Zeiss 60× oil immersion planApp objective with 1.4 numerical aperture).
(§8) The internalization of MUC7 20-mer and 12-mer-3 into fungi was visualized using FITC labeled peptides. Cells (10^7) were treated with 50 μM FITC-MUC7 20-mer or 12-mer-3 for 45-90 mins in 100 μl of Na phosphate buffer (10 mM, pH 7.4) at 37° C. The cells were then processed and visualized as described in Example 1.

Data set [5] concerns C. neoformans. Described as above. It is filed as cell-based, Cryptococcus neoformans. The settings on record: 50 μM, 45-90 minutes, 37° C. How it is done: as §6, §7, §8
Data set [6] relates to A. actinomycetemcomitans. Briefly: Antibacterial (cidal) activity assay, loss of cell viability. It counts as cell-based, Actinobacillus actinomycetemcomitans. How it is done:
(§9) The following bacterial strains were tested: Streptococcus mutans (S. mutans) GS-5, Streptococcus gordonii (S. gordonii) Challis, Escherichia coli (E. coli) HB101, Pseudomonas aeruginosa (P. aeruginosa) ATCC 17648, Actinobacillus actinomycetemcomitans (A. actinomycetemcomitans) NCTC9710, Porphyromonas gingivalis (P. gingivalis) 381 and W50. S. mutans, S. gordonii, A. actinomycetemcomitans and P. aeruginosa were grown anaerobically by candle jar extinction at 37° C. on TSB plates. P. gingivalis was grown in anaerobic chamber at 37° C. on sheep blood agar plates. E. coli was grown aerobically at 37° C. on LB agar plates.
(§10) Two fold serial dilutions of each peptide (ranging from 100 μM down to 1.5625 μM) in 20 μl of 10 mM Na phosphate buffer, pH 7.4, were incubated with an equal volume of bacterial or fungal strain (10^5 cells/ml) for 1.5 hours at 30° C. for S. cerevisiae and 37° C. for the rest of strains tested. At the end of incubation, the samples were diluted 20 fold and aliquots (˜120 cells) of each sample were plated on appropriate plates depending on the strain tested, as indicated above. […] Colonies were then counted, and the loss of cell viability was plotted as a function of protein concentration. […]
as §2

Data set [7] concerns S. mutans. Described as above. It is filed as cell-based. The settings on record: Streptococcus mutans, read-out: ED50 (95% confident limit). How it is done: as §9, §10, §2

Entries after “also recorded” stand apart in the source; their conditions may differ.

Take “12-mer (amino acids 40-51 of MUC7D1), SEQ ID NO.6: RKSYKCLHKRCR (OTHER INFORMATION: 12-mer; Amino acids 40-51 of the MUC7D1 peptide.) [Peptide 12-mer]”: the “cidal activity against fungi or bacteria” value in data set [1] is “active against a variety of fungi and bacteria”.

Turning to “12-mer with arginine and lysine at position 40 and 41 replaced by alanine, SEQ ID NO.11: AASYKCLHKRCR (OTHER INFORMATION: 12-mer-2 variant of the 12-mer) [Peptide 12-mer-2]”, the “ED50 (95% confidence limit) C. neoformans” value in data set [2] was “comparable to that of unaltered 12-mer”.

For “12-mer with both cysteines replaced by alanine, SEQ ID NO.13: RKSYKALHKRAR (OTHER INFORMATION: 12-mer-4 variant of the 12-mer) [Peptide 12-mer-4]”, in data set [3], the “ED50 (95% confidence limit) C. albicans” value is recorded as “did not alter 12-mer antifungal activity”. Moreover, the “ED50 (95% confidence limit) C. neoformans” value in data set [2] is “did not alter 12-mer antifungal activity”.

Regarding “12-mer with positions 40, 41, 44, 48, 49 and 51 replaced by alanine, SEQ ID NO.12: AASYACLHAACA (OTHER INFORMATION: 12-mer-3 variant of the 12-mer) [Peptide 12-mer-3]”, in data set [3], the “ED50 (95% confidence limit) C. albicans” value is reported as “no anticandidal activity”. Besides, in data set [2], the “ED50 (95% confidence limit) C. neoformans” value is given as “cidal activity was diminished; also recorded: No activity”. The “internalization of FITC-labeled peptide” value in data set [4] and in data set [5] was “No internalization” each time.

As to `C[C@H](NC(=O)[C@H](Cc1cnc[nH]1)NC(=O)[C@H](CO)NC(=O)[C@@H](N)CC(=O)O)C(=O)N[C@@H](CCCCN)C(=O)N[C@@H](CCCNC(=N)N)C(=O)N[C@@H](Cc1cnc[nH]1)C(=O)N[C@@H](Cc1cnc[nH]1)C(=O)NCC(=O)N[C@@H](Cc1ccc(O)cc1)C(=O)N[C@@H](CCCCN)C(=O)N[C@@H](CCCNC(=N)N)C(=O)N[C@@H](CCCCN)C(=O)N[C@@H](Cc1ccccc1)C(=O)N[C@@H](Cc1cnc[nH]1)C(=O)N[C@@H](CCC(=O)O)C(=O)N[C@@H](CCCCN)C(=O)N[C@@H](Cc1cnc[nH]1)C(=O)N[C@@H](Cc1cnc[nH]1)C(=O)N[C@@H](CO)C(=O)N[C@@H](Cc1cnc[nH]1)C(=O)N[C@@H](CCCNC(=N)N)C(=O)NCC(=O)N[C@@H](Cc1ccc(O)cc1)C(=O)O` [Hsn-5, reference compound], the “effect of pretreatment with CCCP or sodium azide on peptide-induced killing” value in data set [3] (C. albicans, 300 μM CCCP or 20 mM sodium azide, 2 hours) is given as “rescued Candida cells from killing”; in data set [2] (C. neoformans, 300 μM CCCP or 20 mM sodium azide, 2 hours), “unable to do the same”. Further, in data set [3] (C. albicans, 4° C.), the “potency at 4° C.” value was “limited potency”. Also, the “Loss of Cell viability (%)” value is listed as 0 + 0% in data set [3] (C. albicans, 5 min); 1 + 3% in data set [3] (C. albicans, 15 min); 11 + 4% in data set [3] (C. albicans, 30 min); 34 + 2% in data set [3] (C. albicans, 45 min); 42 + 3% in data set [3] (C. albicans, 90 min); 9 ± 2% in data set [2] (C. neoformans, 5 min). The “Loss of Cell viability (%)” value in data set [2] (C. neoformans, 15 min) is given as 43 + 3%; in data set [2] (C. neoformans, 30 min), 59 + 5%; in data set [2] (C. neoformans, 45 min) it was 64 + 1%; in data set [2] (C. neoformans, 90 min), 71 + 7%. In addition, the “Peptide-induced killing without the cations” value in data set [3] (C. albicans, Na phosphate buffer, 25 μM) is 100%; in data set [2] (C. neoformans, Na phosphate buffer, 25 μM), 100%. For the same compound, the “activity at 4° C.” value in data set [2] (C. neoformans, 4° C.) is on record as “hardly affected”. The “loss of cell viability at the highest concentration tested” value in data set [6] (100 μM) came out at 24%. Also, the “concentration for killing bacteria relative to killing fungi” value in data set [1] is reported as “more than 10 fold”.

Consider `[H]/N=C(/N)N[C@H]1[C@H](O)[C@@H](O)[C@H](O[C@@H]2O[C@@H](C)[C@](O)(C=O)[C@H]2O[C@@H]2O[C@@H](CO)[C@H](O)[C@@H](O)[C@@H]2NC)[C@@H](N/C(N)=N\[H])[C@@H]1O` [streptomycin], for which the EC50 worked out at 2.7 µM in data set [6] (Aggregatibacter actinomycetemcomitans, read-out: ED50 (95% confident limit)) and 64 µM in data set [7].

As to “from the N-terminus of the 20-mer (amino acids 32-39), SEQ ID NO.10: LAHQKPFI (OTHER INFORMATION: 8-mer-N; Amino acids 32-3 9 of the MUC7D1 peptide.) [Peptide 8-mer-N]”, the “ED50 (95% confidence limit) C. albicans” value in data set [3] is “No activity”; in data set [3] (listed as N-terminal 8-mer), “no antifungal activity”. Moreover, the “ED50 (95% confidence limit) C. neoformans” value is “No activity” in data set [2] and “no antifungal activity” in data set [2] (listed as N-terminal 8-mer). Further, in data set [1], the antibacterial activity entry is on record as “did not exhibit antibacterial activity”.
